Data reported in paper PMC11189555, “Aryl amino acetamides prevent Plasmodium falciparum ring development via targeting the lipid-transfer protein PfSTART1” (Nature Communications, 2024).
Values joined by “and” are separate entries in the source; they are usually repeats but may differ in a detail not shown here. Equal entries are not always repeated. Where two headings read alike, the source gives them in different places.

Tested on: SLI-N309K parasites
Assay: Growth inhibition assay (72 h, LDH activity)
Assay type: cell-based, Plasmodium falciparum
Conditions: for Growth inhibition, (1 - av / DMSO) x 100: Fig 2B source data, per biological replicate; for sample/DMSO: START(N309K), biological replicates 1-4; for EC50: Plasmodium falciparum
Description: Parasite growth assays with inhibitory compounds were performed as per[11] and are fully described in the Supplementary Information.
Molecular biology and transfection of P. falciparum: Selection Linked Integration […]
To introduce the PfSTART1 mutations, the second half of the coding sequence of pfstart1 (PF3D7_0104200), was recodonised without introns to the bias of Saccharomyces cerevisiae containing either WT, N309K or N330K mutations, and synthesised as gBlock fragments (Integrated DNA Technologies). The first 819 bp of the 5′ native sequence of pfstart1 was amplified from gDNA, to form the 5’ homology block (5’ HB). The 3′ recodonised gBlock fragment comprising of the last 552 bp of either the WT, N309K or N330K pfstart1 to form the ‘recodon’ block (primers listed in Table S2). The 5’ HB and recodon products were sewn together by overlapping PCR to reconstitute the full coding sequence of pfstart1. These blocks (WT/N309K/N330K) were digested with BglII/PstI, and inserted into the parasite vector p-HA-2A-Neo-glmS
1. This plasmid contains an in -frame haemagglutinin (HA) epitope for protein identification and a P2A peptide (2A) to skip continuous peptide bond synthesis of a downstream neomycin resistance gene ( NeoR).
Parasites containing the transfected DNA were selected using 2.5 nM WR99210 (Jacobus). To select for parasites in which single crossover integration had occurred into the pfstart1 locus, parasites were treated with 400 μg/mL G418 (geniticin, Sigma Aldrich) for 14 days: only parasites that have integrated the construct into their genome expressed the neomycin resistance gene together with the PfSTART1 protein.
Parasite lines were cloned using limiting dilution. These clones were then tested on Western Blot (for correct HA-tagging and protein size), and correct integration and sequence were tested by PCR analysis: PCR on the gDNA was conducted using the primers START_5’UTR.F and START_Seq.R (Table S2). […]
Growth inhibition assays. Synchronised ring-stage parasites (0.3-0.6% parasitemia, 2% haematocrit) were grown for 72 h in a serial-dilution of the compound under […]
and compound 4. Note that M-833 was first purchased from MolPort (MolPort -002-267-916) then made in-house at WEHI: the differences observed in EC50s across experiments are attributed to the different batches of M -833. For some experiments, 0, 0.25 or 2.5 mM of glucosamine (GlcN) was also added. Experiments were set up in technical duplicates or triplicates. Following a freeze -thaw cycle, lactate dehydrogenase (LDH) activity was assessed as an indicator of parasite growt h 5. 30 μL of parasite culture was incubated for 30 min in the dark with 75 μL Malstat mixture (0.1 M Tris pH 9.0, 20 g/L lactic acid, pH 7.5, 0.2% Triton-X100, 0.5 g/L acetylpyridine adenine dinucleotide (APAD, Sigma), 200 μg/mL nitroblue tetrazolium (NBT; Sigma), 1 μg/mL phenozine ethosulfate (PES; Sigma)). Absorbance was then measured at 650 nm, transformed using the formula below, plotted against the logarithm of the concentrations, and a non-linear regression (log(inhibitor) vs. response, variable slope) was calculated using GraphPad Prism to assess the half-inhibitory […]
Growth inhibition % = (1 − average(sample)− average(uRBC)) ∗ 100 […]
The DMSO samples were also used to assess growth of parasite in the presence of 0.25 and 2.5 mM GlcN (normalised by DMSO in 0 mM GlcN).
Egress, invasion & recovery assay. To measure egress, invasion and follow up recovery in the presence of different compounds, we adapted the method developed in6, using Hyp1-Nluc parasites7. These parasites episomally express the exported PEXEL protein Hyp1 (PF3D7_0113300) tagged with a NanoLuc luciferase (NLuc) and were selected with 2.5 nM WR99210 (Jacobus). Highly synchronised schizonts were obtained using ML10 (LifeArc) and sorbitol synchronisation, and Percoll-purified (the culture was gently layered over 67% Percoll (Cytiva) in RPMI, and centrifuged for 15 min at 1500 g and the schizont layer was collected and washed). […]

Q: Cc1cc(Cl)c(S(=O)(=O)N2CCCC2)cc1OCC(=O)NC1CCCCC1 [M-833] was tested. Which “Growth inhibition, (1 - av / DMSO) x 100” value (SLI-N309K, M-833 conc 0.00304832 (unit not given)) did it give?
A: -28.2579% and -1.2093% and -11.368%

Q: What about the “Growth inhibition, (1 - av / DMSO) x 100” value (SLI-N309K, M-833 conc 0.00914495 (unit not given)) of the same compound?
A: -16.5589% and 4.977% and -8.756%

Q: What about the “Growth inhibition, (1 - av / DMSO) x 100” value (SLI-N309K, M-833 conc 0.0274348 (unit not given)) of the same compound?
A: -9.0535% and 17.7442% and 3.575%

Q: And the “Growth inhibition, (1 - av / DMSO) x 100” value (SLI-N309K, M-833 conc 0.0823045 (unit not given))?
A: -11.797% and 21.4186% and -2.462%

Q: And the “Growth inhibition, (1 - av / DMSO) x 100” value (SLI-N309K, M-833 conc 0.246914 (unit not given))?
A: -0.0196% and 23.5116% and 10.1477%

Q: What about the “Growth inhibition, (1 - av / DMSO) x 100” value (SLI-N309K, M-833 conc 0.740741 (unit not given)) of the same compound?
A: 27.0233% and 58.6744% and 26.0116%

Q: And the “Growth inhibition, (1 - av / DMSO) x 100” value (SLI-N309K, M-833 conc 2.22222 (unit not given))?
A: 70.1744% and 76.5116% and 55.7482%

Q: What about the “Growth inhibition, (1 - av / DMSO) x 100” value (SLI-N309K, M-833 conc 6.66667 (unit not given)) of the same compound?
A: 87.2624% and 94.814% and 86.8337%

Q: What about the “Growth inhibition, (1 - av / DMSO) x 100” value (SLI-N309K, M-833 conc 20 (unit not given)) of the same compound?
A: 88.5166% and 95.5116% and 93.0422%

Q: What about the sample/DMSO (M-833 0.00152416 uM, 0 mM GlcN) of the same compound?
A: 2.39

Q: What about the sample/DMSO (M-833 0.00152416 uM, 0.25 mM GlcN) of the same compound?
A: 4.826 and 2.498

Q: And the sample/DMSO (M-833 0.00152416 uM, 2.5 mM GlcN)?
A: 6.332

Q: And the sample/DMSO (M-833 0.00457247 uM, 0 mM GlcN)?
A: 13.8723 and 0.5123 and 3.546 and -3.543

Q: And the sample/DMSO (M-833 0.00457247 uM, 0.25 mM GlcN)?
A: 7.1 and 10.4012 and -2.062 and -3.605

Q: And the sample/DMSO (M-833 0.00457247 uM, 2.5 mM GlcN)?
A: 13.3216 and 19.7117 and 1.5728 and -5.599

Q: What about the sample/DMSO (M-833 0.0137174 uM, 0 mM GlcN) of the same compound?
A: 7.619 and -0.2396 and 1.751 and 10.2857

Q: And the sample/DMSO (M-833 0.0137174 uM, 0.25 mM GlcN)?
A: 8.4852 and 5.851 and 4.488 and 5.637

Q: What about the sample/DMSO (M-833 0.0137174 uM, 2.5 mM GlcN) of the same compound?
A: 21.8449 and 8.908 and 5.227 and 1.886

Q: What about the sample/DMSO (M-833 0.0411523 uM, 0 mM GlcN) of the same compound?
A: 1.68 and 3.644 and 4.3 and 2.606

Q: And the sample/DMSO (M-833 0.0411523 uM, 0.25 mM GlcN)?
A: 17.5682 and 13.2615 and 4.177 and 1.848

Q: What about the sample/DMSO (M-833 0.0411523 uM, 2.5 mM GlcN) of the same compound?
A: 19.1718 and 12.6822 and 8.512 and 8.472

Q: And the sample/DMSO (M-833 0.123457 uM, 0 mM GlcN)?
A: 3.306 and 10.0306 and 17.9209 and 10.4229

Q: What about the sample/DMSO (M-833 0.123457 uM, 0.25 mM GlcN) of the same compound?
A: 21.665 and 12.0728 and 20.7856 and 13.6953

Q: And the sample/DMSO (M-833 0.123457 uM, 2.5 mM GlcN)?
A: 31.9676 and 15.6301 and 24.5056 and 24.9447

Q: And the sample/DMSO (M-833 0.37037 uM, 0 mM GlcN)?
A: 13.628 and 22.7795 and 30.4444 and 24.0457

Q: And the sample/DMSO (M-833 0.37037 uM, 0.25 mM GlcN)?
A: 34.9176 and 21.471 and 31.1561 and 33.3027

Q: What about the sample/DMSO (M-833 0.37037 uM, 2.5 mM GlcN) of the same compound?
A: 40.447 and 24.7651 and 37.6894 and 48.2393

Q: What about the sample/DMSO (M-833 1.11111 uM, 0 mM GlcN) of the same compound?
A: 28.3402 and 44.5509 and 44.7966 and 56.0914

Q: What about the sample/DMSO (M-833 1.11111 uM, 0.25 mM GlcN) of the same compound?
A: 53.0252 and 39.9238 and 58.0645 and 67.3975

Q: What about the sample/DMSO (M-833 1.11111 uM, 2.5 mM GlcN) of the same compound?
A: 64.9649 and 41.0107 and 63.8256 and 74.1417

Q: What about the sample/DMSO (M-833 3.33333 uM, 0 mM GlcN) of the same compound?
A: 62.0018 and 73.866 and 73.9333 and 81.5771

Q: What about the sample/DMSO (M-833 3.33333 uM, 0.25 mM GlcN) of the same compound?
A: 83.0296 and 69.5951 and 81.4805 and 87.3149

Q: What about the sample/DMSO (M-833 3.33333 uM, 2.5 mM GlcN) of the same compound?
A: 83.83 and 68.173 and 80.0856 and 88.1096

Q: What about the sample/DMSO (M-833 10 uM, 0 mM GlcN) of the same compound?
A: 89.1663 and 89.2589 and 93.2173 and 92.8571

Q: What about the sample/DMSO (M-833 10 uM, 0.25 mM GlcN) of the same compound?
A: 91.9813 and 85.912 and 92.402 and 91.8609

Q: And the sample/DMSO (M-833 10 uM, 2.5 mM GlcN)?
A: 89.5706 and 77.5672 and 88.9441 and 91.41

Q: What about the EC50 (72 h, Fig 2B, SLI-N309K, 72 h, n = 3, unit only in x-axis title, read-out: EC50 (95% confidence interval)) of the same compound?
A: 992 nM

Q: What about the EC50 (Fig 3C, SLI-N309K, 0 mM GlcN, n = 4, unit on plot axis, read-out: EC50 M-833 (95% confidence interval)) of the same compound?
A: 1620 nM

Q: What about the EC50 (Fig 3C, SLI-N309K, 0.25 mM GlcN, n = 4, unit on plot axis, read-out: EC50 M-833 (95% confidence interval)) of the same compound?
A: 968 nM

Q: What about the EC50 (Fig 3C, SLI-N309K, 2.5 mM GlcN, n = 4, unit on plot axis, read-out: EC50 M-833 (95% confidence interval)) of the same compound?
A: 645 nM

Q: And the “fold more resistant than the 3D7 parental parasites” value (SLI-N309K, Fig 2B)?
A: 10 fold

Q: And the “fold reduction of EC50 on addition of 2.5 mM GlcN” value (SLI-N309K, not statistically significant)?
A: 2.5 fold
